This is an account of results in patent US11739098B2 (BRISTOL-MYERS SQUIBB COMPANY, priority 2017, dated 2023).

Where only a bound is given, the exact number is not on record here.

Assay type in all cases: cell-based
One assay addresses T1, human TLR7 (Homo sapiens, UniProt Q9NYK1).
T1 construct: host or cells: HEK-Blue cells (HEK293-derived reporter line)
T1 sequence (Q9NYK1 27-1049): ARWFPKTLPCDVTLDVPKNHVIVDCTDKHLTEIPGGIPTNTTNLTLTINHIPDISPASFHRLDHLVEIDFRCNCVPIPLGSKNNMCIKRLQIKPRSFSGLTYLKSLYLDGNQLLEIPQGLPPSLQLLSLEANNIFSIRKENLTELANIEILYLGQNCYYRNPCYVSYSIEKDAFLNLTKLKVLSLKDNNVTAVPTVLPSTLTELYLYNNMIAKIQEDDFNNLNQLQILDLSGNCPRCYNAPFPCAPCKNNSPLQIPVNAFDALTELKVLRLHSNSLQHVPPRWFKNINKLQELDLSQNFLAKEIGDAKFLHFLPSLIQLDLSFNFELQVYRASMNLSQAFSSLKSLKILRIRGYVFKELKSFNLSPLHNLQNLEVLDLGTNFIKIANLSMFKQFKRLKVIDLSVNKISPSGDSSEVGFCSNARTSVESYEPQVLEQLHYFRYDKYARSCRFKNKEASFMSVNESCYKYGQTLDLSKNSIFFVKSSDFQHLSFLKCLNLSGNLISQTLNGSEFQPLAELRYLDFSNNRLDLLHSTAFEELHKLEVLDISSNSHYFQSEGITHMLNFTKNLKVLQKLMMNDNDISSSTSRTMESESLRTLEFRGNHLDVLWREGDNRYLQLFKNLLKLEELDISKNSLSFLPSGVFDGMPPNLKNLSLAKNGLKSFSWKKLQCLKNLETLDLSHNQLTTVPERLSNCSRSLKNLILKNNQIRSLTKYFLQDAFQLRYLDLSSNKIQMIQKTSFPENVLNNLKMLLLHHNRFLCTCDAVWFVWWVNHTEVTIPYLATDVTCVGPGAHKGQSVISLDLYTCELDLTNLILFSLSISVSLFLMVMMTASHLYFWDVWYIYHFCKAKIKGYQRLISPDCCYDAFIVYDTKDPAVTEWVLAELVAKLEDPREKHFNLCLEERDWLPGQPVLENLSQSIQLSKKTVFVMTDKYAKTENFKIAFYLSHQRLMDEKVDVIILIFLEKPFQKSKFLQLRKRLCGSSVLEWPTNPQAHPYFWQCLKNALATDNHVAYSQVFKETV
The assay is described as follows: TLR7 inhibition reporter assay (HEK-Blue cells, SEAP reporter, gardiquimod stimulation). To be noted: HEK-Blue cells overexpressing human TLR7, SEAP reporter, gardiquimod 7.5 μM. A digest of the protocol:
(§1)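 HEK-Blue cells overexpressing human TLR7, TLR8 or TLR9 (NF-κB/AP-1-driven SEAP) pre-treated 30 min at room temperature with compound (0.05 nM–50 μM), then stimulated with gardiquimod 7.5 μM (TLR7), R848 15.9 μM (TLR8) or ODN2006 5 nM (TLR9). SEAP read colorimetrically after 22 h at 37 °C; % inhibition calculated.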

A further assay has as its target T2, human TLR8 (Homo sapiens, UniProt Q9NR97).
T2 construct: host or cells: HEK-Blue cells (HEK293-derived reporter line)
T2 sequence (Q9NR97 27-1041): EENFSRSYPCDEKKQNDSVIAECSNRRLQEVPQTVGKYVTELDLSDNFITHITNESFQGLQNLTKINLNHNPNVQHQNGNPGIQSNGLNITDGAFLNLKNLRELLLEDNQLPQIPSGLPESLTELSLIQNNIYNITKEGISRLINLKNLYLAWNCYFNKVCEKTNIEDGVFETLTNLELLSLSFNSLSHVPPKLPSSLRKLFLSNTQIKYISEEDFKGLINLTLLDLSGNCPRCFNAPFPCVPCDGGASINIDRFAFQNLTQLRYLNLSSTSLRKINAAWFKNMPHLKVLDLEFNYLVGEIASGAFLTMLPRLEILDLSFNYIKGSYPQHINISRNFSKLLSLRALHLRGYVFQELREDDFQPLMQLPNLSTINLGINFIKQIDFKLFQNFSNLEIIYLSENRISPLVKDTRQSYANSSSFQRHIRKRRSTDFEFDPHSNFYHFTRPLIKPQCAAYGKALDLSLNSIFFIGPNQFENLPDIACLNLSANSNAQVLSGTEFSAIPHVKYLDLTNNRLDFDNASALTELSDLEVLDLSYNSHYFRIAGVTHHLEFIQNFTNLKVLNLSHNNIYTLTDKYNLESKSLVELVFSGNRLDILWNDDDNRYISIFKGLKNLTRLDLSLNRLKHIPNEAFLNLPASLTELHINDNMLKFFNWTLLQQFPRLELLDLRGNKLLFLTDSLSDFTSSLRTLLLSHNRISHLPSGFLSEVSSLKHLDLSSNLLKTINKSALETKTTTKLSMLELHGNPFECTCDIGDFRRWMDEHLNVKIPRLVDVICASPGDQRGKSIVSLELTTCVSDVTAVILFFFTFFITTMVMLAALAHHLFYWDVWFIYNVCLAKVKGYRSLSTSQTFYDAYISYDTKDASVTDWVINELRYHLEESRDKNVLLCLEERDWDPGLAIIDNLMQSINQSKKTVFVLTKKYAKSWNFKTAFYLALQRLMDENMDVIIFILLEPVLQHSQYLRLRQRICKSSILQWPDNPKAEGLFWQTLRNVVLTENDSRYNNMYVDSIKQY
The experiment in a line: TLR8 inhibition reporter assay (HEK-Blue cells, SEAP reporter, R848 stimulation). The settings on record: HEK-Blue cells overexpressing human TLR8, SEAP reporter, R848 15.9 μM. Summed up:
as §1
For orientation: A reporter such as luciferase makes a cellular process visible.

For another assay, the target named is T3, human TLR9 (Homo sapiens, UniProt Q9NR96).
T3 construct: host or cells: HEK-Blue cells (HEK293-derived reporter line)
T3 sequence (Q9NR96 26-1032): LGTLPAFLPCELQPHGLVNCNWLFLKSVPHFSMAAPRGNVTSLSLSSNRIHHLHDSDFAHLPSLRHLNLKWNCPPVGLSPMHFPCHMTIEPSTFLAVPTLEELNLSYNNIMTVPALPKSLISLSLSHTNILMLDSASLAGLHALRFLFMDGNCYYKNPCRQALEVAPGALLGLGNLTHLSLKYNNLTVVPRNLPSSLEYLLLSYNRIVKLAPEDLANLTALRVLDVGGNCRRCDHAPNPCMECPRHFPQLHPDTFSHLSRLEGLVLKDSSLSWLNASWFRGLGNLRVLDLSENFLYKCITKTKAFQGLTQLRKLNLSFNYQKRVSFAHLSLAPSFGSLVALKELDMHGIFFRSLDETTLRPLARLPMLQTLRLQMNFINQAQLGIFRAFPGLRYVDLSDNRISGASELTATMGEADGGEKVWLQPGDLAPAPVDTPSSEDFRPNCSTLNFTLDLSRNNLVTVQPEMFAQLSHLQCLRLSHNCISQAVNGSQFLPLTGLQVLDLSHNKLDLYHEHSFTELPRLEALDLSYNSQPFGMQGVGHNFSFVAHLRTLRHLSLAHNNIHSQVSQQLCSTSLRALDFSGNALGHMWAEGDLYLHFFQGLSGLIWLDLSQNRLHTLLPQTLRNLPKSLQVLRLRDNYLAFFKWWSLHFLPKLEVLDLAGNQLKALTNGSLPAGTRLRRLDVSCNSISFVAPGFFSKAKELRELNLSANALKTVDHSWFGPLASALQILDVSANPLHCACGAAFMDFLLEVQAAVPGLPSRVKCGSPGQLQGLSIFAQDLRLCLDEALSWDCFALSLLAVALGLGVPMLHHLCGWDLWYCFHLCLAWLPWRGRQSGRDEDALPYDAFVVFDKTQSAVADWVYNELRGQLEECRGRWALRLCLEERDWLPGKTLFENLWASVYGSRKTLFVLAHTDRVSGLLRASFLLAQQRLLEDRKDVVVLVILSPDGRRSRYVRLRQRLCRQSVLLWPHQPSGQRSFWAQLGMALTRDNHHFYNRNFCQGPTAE
The experiment in a line: TLR9 inhibition reporter assay (HEK-Blue cells, SEAP reporter, ODN2006 stimulation). To be noted: HEK-Blue cells overexpressing human TLR9, SEAP reporter, ODN2006 5 nM. A digest of the protocol: as §1

The term IC50 denotes the point on the concentration scale where inhibition reaches its midpoint. A low value points to inhibition by little substance. As for `Cc1cc2ncnn2nc1-c1[nH]c2ccc(C3CCN(C4CCOCC4)CC3)cc2c1C(C)C` [Example 687, 6-(3-isopropyl-5-(1-(tetrahydro-2H-pyran-4-yl)piperidin-4-yl)-1H-indol-2-yl)-7-methyl-[1,2,4]triazolo[1,5-b]pyridazine], the IC50 on human TLR7 was less than 100 nM; against human TLR8, less than 100 nM; against human TLR9, 1000 to 50000 nM.
Regarding `CC(C)c1c(-c2cn(C)c3ncncc23)[nH]c2ccc(C3CCN(C4CCOCC4)CC3)cc12` [Example 688, 5-(3-isopropyl-5-(1-(tetrahydro-2H-pyran-4-yl)piperidin-4-yl)-1H-indol-2-yl)-7-methyl-7H-pyrrolo[2,3-d]pyrimidine], the IC50 on human TLR7 is less than 100 nM; against human TLR8 it was less than 100 nM; on human TLR9 it was 1000 to 50000 nM.
In the case of `Cc1ccnc2c1c(-c1[nH]c3ccc(C4CCN(C5CCOCC5)CC4)cc3c1C(C)C)cn2C` [Example 689, 3-(3-isopropyl-5-(1-(tetrahydro-2H-pyran-4-yl)piperidin-4-yl)-1H-indol-2-yl)-1,4-dimethyl-1H-pyrrolo[2,3-b]pyridine], the figures for the half-maximal inhibitory concentration (IC50) against human TLR7, on human TLR8 and against human TLR9 were less than 100 nM, less than 100 nM and 1000 to 50000 nM, respectively.
Turning to `Cc1ccnc2[nH]cc(-c3[nH]c4ccc(C5CCN(C6CCOCC6)CC5)cc4c3C(C)C)c12` [Example 690, 3-(3-isopropyl-5-(1-(tetrahydro-2H-pyran-4-yl)piperidin-4-yl)-1H-indol-2-yl)-4-methyl-1H-pyrrolo[2,3-b]pyridine], the figures for the half-maximal inhibitory concentration (IC50) against human TLR7, at human TLR8 and against human TLR9 were less than 100 nM, less than 100 nM and 1000 to 50000 nM, respectively.
In the case of `Cc1c(-c2[nH]c3ccc(C4CCN(C5CCOCC5)CC4)cc3c2C(C)C)c2cccnc2n1C` [Example 691, 3-(3-isopropyl-5-(1-(tetrahydro-2H-pyran-4-yl)piperidin-4-yl)-1H-indol-2-yl)-1,2-dimethyl-1H-pyrrolo[2,3-b]pyridine], the IC50 at human TLR7 was less than 100 nM; against human TLR8 it was less than 100 nM; at human TLR9 it was 1000 to 50000 nM.
Turning to `COc1cc(-c2[nH]c3ccc(C4CCN(C5CCOCC5)CC4)cc3c2C(C)C)nn2ncnc12` [Example 692, 6-(3-isopropyl-5-(1-(tetrahydro-2H-pyran-4-yl)piperidin-4-yl)-1H-indol-2-yl)-8-methoxy-[1,2,4]triazolo[1,5-b]pyridazine], the half-inhibitory concentration (IC50) against human TLR7 was less than 100 nM; at human TLR8 it was less than 100 nM; against human TLR9 it was 1000 to 50000 nM.
On to `Cc1cc2nccn2cc1-c1[nH]c2ccc(C3CCN(C4CCOCC4)CC3)cc2c1C(C)C` [Example 693, 6-(3-isopropyl-5-(1-(tetrahydro-2H-pyran-4-yl)piperidin-4-yl)-1H-indol-2-yl)-7-methylimidazo[1,2-a]pyridine], for which the IC50 at human TLR7 was less than 100 nM; on human TLR8, less than 100 nM; at human TLR9, 100 to 1000 nM.
As for `CC(C)c1c(-c2cn(C)c3ncccc23)[nH]c2ccc(C3CCN(C4CCOCC4)CC3)cc12` [Example 694, 3-(3-isopropyl-5-(1-(tetrahydro-2H-pyran-4-yl)piperidin-4-yl)-1H-indol-2-yl)-1-methyl-1H-pyrrolo[2,3-b]pyridine], the IC50 against human TLR7 is less than 100 nM; on human TLR8 it was less than 100 nM; against human TLR9, 1000 to 50000 nM.
With `CC(C)c1c(-c2ccc3cnnn3c2)[nH]c2ccc(C3CCN(C4CCOCC4)CC3)cc12` [Example 695, 6-(3-isopropyl-5-(1-(tetrahydro-2H-pyran-4-yl)piperidin-4-yl)-1H-indol-2-yl)-[1,2,3]triazolo[1,5-a]pyridine], the IC50 at human TLR7 is 100 to 1000 nM; against human TLR8, less than 100 nM; against human TLR9, 100 to 1000 nM.
For the molecule `CC(C)c1c(-c2ccn3nncc3c2)[nH]c2ccc(C3CCN(C4CCOCC4)CC3)cc12` [Example 696, 5-(3-isopropyl-5-(1-(tetrahydro-2H-pyran-4-yl)piperidin-4-yl)-1H-indol-2-yl)-[1,2,3]triazolo[1,5-a]pyridine], the IC50 is less than 100 nM on human TLR7, 100 to 1000 nM against human TLR8 and 1000 to 50000 nM at human TLR9.
On the same counts, the results for `CC(C)c1c(-c2ccn3cnnc3c2)[nH]c2ccc(C3CCN(C4CCOCC4)CC3)cc12` [Example 697, 7-(3-isopropyl-5-(1-(tetrahydro-2H-pyran-4-yl)piperidin-4-yl)-1H-indol-2-yl)-[1,2,4]triazolo[4,3-a]pyridine] are 100 to 1000 nM, 100 to 1000 nM and 100 to 1000 nM.
In the same order, the values of `Cc1cc(-c2[nH]c3ccc(C4CCN(C5CCOCC5)CC4)cc3c2C(C)C)cn2nnnc12` [Example 698, 6-(3-isopropyl-5-(1-(tetrahydro-2H-pyran-4-yl)piperidin-4-yl)-1H-indol-2-yl)-8-methyltetrazolo[1,5-a]pyridine] are less than 100 nM, less than 100 nM and 1000 to 50000 nM.
